Source: the NIST ThermoML archive (doi:10.1016/j.jct.2004.07.031)
Where “and” joins values, the source holds several entries; their conditions need not be identical. Equal entries are not always repeated.

Assay: molar heat capacity at constant pressure
Conditions: 101.33 kPa, Crystal, PPMS instrument (Quantum Design)

O=P([O-])([O-])[O-].[La+3] [lanthanum orthophosphate]
Conditions	molar heat capacity at constant pressure
2.046 K	0.00182 J/K/mol
2.066 K	0.00139 J/K/mol
2.067 K	0.0014 J/K/mol
2.068 K	0.00141 J/K/mol
2.083 K	0.00123 J/K/mol
2.246 K	0.0017 J/K/mol
2.247 K	0.0017 J/K/mol and 0.00172 J/K/mol
2.415 K	0.00201 J/K/mol
2.429 K	0.00212 J/K/mol
2.43 K	0.00213 J/K/mol
2.616 K	0.00265 J/K/mol
2.617 K	0.00266 J/K/mol
2.618 K	0.00266 J/K/mol
2.763 K	0.0031 J/K/mol
2.802 K	0.0034 J/K/mol
2.803 K	0.00342 J/K/mol
2.805 K	0.00339 J/K/mol
2.989 K	0.00467 J/K/mol
2.992 K	0.00476 J/K/mol
2.994 K	0.00473 J/K/mol
3 K	0.0053 J/K/mol
3.115 K	0.00524 J/K/mol
3.19 K	0.00601 J/K/mol
3.191 K	0.00593 J/K/mol and 0.00603 J/K/mol
3.383 K	0.00728 J/K/mol
3.385 K	0.00731 J/K/mol
3.386 K	0.0073 J/K/mol
3.473 K	0.00765 J/K/mol
3.505 K	0.00809 J/K/mol
3.578 K	0.00852 J/K/mol
3.58 K	0.00853 J/K/mol and 0.00852 J/K/mol
3.772 K	0.00994 J/K/mol
3.775 K	0.00998 J/K/mol
3.778 K	0.00998 J/K/mol
3.839 K	0.01034 J/K/mol
3.969 K	0.01147 J/K/mol
3.973 K	0.01149 J/K/mol
3.976 K	0.01146 J/K/mol
4.008 K	0.01178 J/K/mol
4.168 K	0.0131 J/K/mol
4.172 K	0.01315 J/K/mol
4.174 K	0.01314 J/K/mol
4.207 K	0.01339 J/K/mol
4.368 K	0.01481 J/K/mol
4.371 K	0.01487 J/K/mol
4.372 K	0.01494 J/K/mol
4.518 K	0.01632 J/K/mol
4.565 K	0.01686 J/K/mol
4.568 K	0.01687 J/K/mol
4.569 K	0.0169 J/K/mol
4.576 K	0.01697 J/K/mol
4.763 K	0.01882 J/K/mol
4.765 K	0.01903 J/K/mol
4.768 K	0.01911 J/K/mol
4.946 K	0.02113 J/K/mol
4.961 K	0.02146 J/K/mol
4.965 K	0.02154 J/K/mol
4.967 K	0.02153 J/K/mol
5.031 K	0.02216 J/K/mol
5.166 K	0.02384 J/K/mol
5.173 K	0.02394 J/K/mol
5.174 K	0.02375 J/K/mol
5.323 K	0.02601 J/K/mol
5.367 K	0.0265 J/K/mol
5.369 K	0.02666 J/K/mol
5.37 K	0.02686 J/K/mol
5.546 K	0.02914 J/K/mol
5.565 K	0.02951 J/K/mol
5.574 K	0.02974 J/K/mol and 0.02916 J/K/mol
5.695 K	0.03139 J/K/mol
5.77 K	0.03276 J/K/mol
5.771 K	0.03277 J/K/mol
5.774 K	0.03288 J/K/mol
5.965 K	0.03647 J/K/mol
5.967 K	0.03583 J/K/mol
